# Reference: paper PMC11783601, “Analogue-Sensitive Inhibition of Histone Demethylases Uncovers Member-Specific Function in Ribosomal Protein Synthesis” (Journal of the American Chemical Society, 2025)
# Where “and” joins values, the source holds several entries; their conditions need not be identical. Identical values can stand only once.
# Biological target: T1, KDM4A F185A (asKDM4A) in HEK293T cells (Homo sapiens, UniProt O75164, F185A)
# T1 construct: we generated the F185A mutation in full-length KDM4A carrying all of the functional domains; host or cells: HEK293T
# T1 sequence (O75164 1-1064 F185A): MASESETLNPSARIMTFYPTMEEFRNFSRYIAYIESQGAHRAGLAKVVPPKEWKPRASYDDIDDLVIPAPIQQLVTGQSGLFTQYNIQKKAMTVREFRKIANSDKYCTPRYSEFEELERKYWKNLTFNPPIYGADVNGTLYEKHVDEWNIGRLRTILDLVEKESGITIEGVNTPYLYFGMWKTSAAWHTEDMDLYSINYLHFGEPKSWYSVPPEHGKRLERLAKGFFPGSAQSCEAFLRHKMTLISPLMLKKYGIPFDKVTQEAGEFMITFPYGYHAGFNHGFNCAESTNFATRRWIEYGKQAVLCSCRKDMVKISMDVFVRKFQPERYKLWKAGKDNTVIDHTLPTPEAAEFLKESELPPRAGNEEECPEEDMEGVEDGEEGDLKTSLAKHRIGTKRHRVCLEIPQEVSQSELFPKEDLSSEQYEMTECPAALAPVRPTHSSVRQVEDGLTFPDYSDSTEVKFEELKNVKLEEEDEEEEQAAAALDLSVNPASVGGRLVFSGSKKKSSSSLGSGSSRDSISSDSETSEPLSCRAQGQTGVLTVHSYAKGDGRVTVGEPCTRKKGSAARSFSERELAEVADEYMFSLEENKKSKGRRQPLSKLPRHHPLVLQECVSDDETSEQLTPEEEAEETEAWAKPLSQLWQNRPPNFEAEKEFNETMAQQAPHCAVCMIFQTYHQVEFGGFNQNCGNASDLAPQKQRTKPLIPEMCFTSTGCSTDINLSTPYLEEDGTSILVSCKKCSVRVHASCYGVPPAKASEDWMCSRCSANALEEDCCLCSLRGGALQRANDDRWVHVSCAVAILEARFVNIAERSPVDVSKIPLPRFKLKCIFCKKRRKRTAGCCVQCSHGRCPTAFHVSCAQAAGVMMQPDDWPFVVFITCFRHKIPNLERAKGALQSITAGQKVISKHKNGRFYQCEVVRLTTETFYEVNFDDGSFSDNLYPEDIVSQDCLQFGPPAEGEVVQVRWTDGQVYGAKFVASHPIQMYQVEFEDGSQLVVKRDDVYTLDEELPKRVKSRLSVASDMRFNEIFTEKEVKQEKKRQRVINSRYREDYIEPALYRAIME
# Assay: Histone extraction, digestion and tandem mass spectrometry (relative abundance of histone modifications)
# Type: cell-based
# Procedure: HEK293T cells were transiently transfected with asKDM4A and treated with varying concentrations of 6A or 6B. […] To further confirm the activity of the enzyme–inhibitor pair, we performed tandem mass spectrometry of tryptic histones isolated from HEK293T cells expressing asKDM4A in the presence or absence of 100 μM 6A. […]
# 22. Histone extraction, digestion and tandem mass spectrometry
# HEK 293-T cells (ATCC CRL-1573) were plated into 6-well plates (Corning) in DMEM (Corning) supplemented with 10% FBS (Corning) and 1X Antibiotic/Antimycin
# (Penicillin/Streptomycin/Fungiozone) (Cytiva HyClone) in an incubator held at 37 °C with 5%
# CO2. At 75% confluency, cells were transfected with 2.5 µg KDM4A F185A or Empty Vector with 5µg Thermo Turbofect (FERR0531). After 4 hours, the media was washed and 200 µM of 6A or equivalent volume of DMSO was added and left to incubate at 37 °C for 24 hours. Cells were then washed with 1X PBS (Corning) followed by trypsinization (Gibco TrypLE™ Express Enzyme). Collected cells were centrifuged at 3000xg for 3 minutes, followed by washing with 1X PBS and centrifuged for an additional 3000xg for 3 minutes. Histone proteins were extracted from the pellet as described by25 to ensure good-quality identification and quantification of single histone marks. Briefly, cell pellets were dissolved in 100 µL of cold 0.2 M H2SO4 and incubated for 2 hours rotating in a cold room (4 °C). Aliquots were then centrifuged at 3400xg for 5 minutes […]
# at 4 °C and the supernatant was added to a fresh tube. 100% cold TCA was then added to a final volume of 33% volume/volume TCA/supernatant and left to incubate for 1 hour in a cold room (4 °C). Samples were then centrifuged at 3400xg for 5 min at 4 °C and the supernatant was discarded. The precipitate was then washed with cold acetone/0.1% HCl and centrifuged at 3400xg for 5 minutes at 4 °C. The supernatant was discarded, and the precipitate was washed with cold acetone and centrifuged at 3400xg for 5 minutes at 4 °C. The supernatant was discarded, and the pellet was dried using a vacuum centrifuge.
# The pellet was dissolved in 50 mM ammonium bicarbonate, pH 8.0, and histones were subjected to derivatization using 5 µL of propionic anhydride and 14 µL of ammonium hydroxide (all Sigma Aldrich) to balance the pH at 8.0. The mixture was incubated for 15 min and the procedure was repeated. Histones were then digested with 1 µg of sequencing grade trypsin (Promega) diluted in 50mM ammonium bicarbonate (1:20, enzyme:sample) overnight at room temperature.
# Derivatization reaction was repeated to derivatize peptide N-termini. The samples were dried in a […]
# Sample desalting: Prior to mass spectrometry analysis, samples were desalted using a 96-well plate filter (Orochem) packed with 1 mg of Oasis HLB C-18 resin (Waters). Briefly, the samples were resuspended in 100 µl of 0.1% TFA and loaded onto the HLB resin, which was previously equilibrated using 100 µl of the same buffer. After washing with 100 µl of 0.1% TFA, the samples were eluted with a buffer containing 70 µl of 60% acetonitrile and 0.1% TFA and then dried in a […]
# LC-MS/MS Acquisition and Analysis: Samples were resuspended in 10 µl of 0.1% TFA and loaded onto a Dionex RSLC […] (Thermo Scientific), coupled online with an Orbitrap Fusion Lumos (Thermo Scientific). Chromatographic separation was performed with a two-column system, consisting of a C-18 trap cartridge (300 µm ID, 5 mm length) and a picofrit analytical column (75 µm ID, 25 cm length) packed in-house with reversed-phase Repro-Sil Pur C18-AQ 3 µm resin. Peptides were separated using a 30 min gradient from 1-30% buffer B (buffer A: 0.1% formic acid, buffer B: 80% acetonitrile + 0.1% formic acid) at a flow rate of 300 nl/min.
# The mass spectrometer was set to acquire spectra in a data-independent acquisition (DIA) mode.
# [1] = 6A-treated samples, replicates _1 and _2
# [2] = H1 variant peptide, samples 6A_1, 6A_2
# [3] = HEK293T cells expressing asKDM4A, 100 μM 6A, LC-MS/MS, n = 2
# [4] = HEK293T cells, KDM4A F185A + 6A, replicates 6A_1 and 6A_2
smiles,measurement,setting,value
"CCCCCCCCOC(=O)C(=O)NC(CC(C)C)C(=O)O [6A, L-Leu octyl-ester NOG]",Single marks H3K4ac,[1],1e-6 and 0.002004
same,Single marks H3K4me1,[1],0.1039 and 0.09374
same,Single marks H3K4me2,[1],0.002434 and 0.008819
same,Single marks H3K4me3,[1],9e-6 and 0.003387
same,Single marks H3K9ac,[1],0.003245 and 0.006938
same,Single marks H3K9me1,[1],0.2368 and 0.08817
same,Single marks H3K9me2,[1],0.4213 and 0.4856
same,Single marks H3K9me3,[1],0.1855
same,Single marks H3K14ac,[1],0.4176 and 0.5798
same,Single marks H3K18ac,[1],0.008957 and 0.006562
same,Single marks H3K18me1,[1],0 and 1.2e-5
same,Single marks H3K23ac,[1],0.5125 and 0.4435
same,Single marks H3K23me1,[1],0 and 5e-6
same,Single marks H3K56ac,[1],0
same,Single marks H3K56me1,[1],0 and 0.9736
same,Single marks H3K56me2,[1],0
same,Single marks H3K56me3,[1],0
same,Single marks H3K79ac,[1],0
same,Single marks H3K79me1,[1],0.3484 and 0.03322
same,Single marks H3K79me2,[1],0.33 and 0.01715
same,Single marks H3K79me3,[1],0.04582 and 0
same,Single marks H3K122ac,[1],0.5896 and 0
same,Single marks H3S10ph,[1],0.08584 and 0.005059
same,Single marks H4K5ac,[1],0.04104 and 0.1648
same,Single marks H4K8ac,[1],0.05131 and 0.1596
same,Single marks H4K12ac,[1],0.09119 and 0.2668
same,Single marks H4K16ac,[1],0.3167 and 0.492
same,Single marks H4K20ac,[1],0.00298 and 0.01255
same,Single marks H4K20me1,[1],0.4844 and 0.3612
same,Single marks H4K20me2,[1],0.1012 and 0.2416
same,Single marks H4K20me3,[1],0.03481 and 0.03641
same,Single marks H31K27ac,[1],0.000296 and 0
same,Single marks H31K27me1,[1],0.18 and 0.1869
same,Single marks H31K27me2,[1],0.4707 and 0.5161
same,Single marks H31K27me3,[1],0.189 and 0.1409
same,Single marks H31K36me1,[1],0.204 and 0.1649
same,Single marks H31K36me2,[1],0.3714 and 0.4932
same,Single marks H31K36me3,[1],0.07097 and 0.06279
same,Single marks H33K27ac,[1],6.9e-5 and 0
same,Single marks H33K27me1,[1],0.2147 and 0.2058
same,Single marks H33K27me2,[1],0.4693 and 0.4746
same,Single marks H33K27me3,[1],0.1187 and 0.09838
same,Single marks H33K36me1,[1],0.2345 and 0.1564
same,Single marks H33K36me2,[1],0.4525 and 0.5384
same,Single marks H33K36me3,[1],0.03679 and 0.06963
same,"Relative abundance, H1_1_35 H11.SETAPVAQAASTATEKPAAAKKTKKPAKAAAPR",[2],0.0%
same,"Relative abundance, H1_1_35 H13.SETAPAAPAAPAPVEKTPVKKKAKKTGAAAGKR",[2],0.0%
same,"Relative abundance, H1_1_35 H15.SETAPAETAAPAPVEKSPAKKKTTKKAGAAKR",[2],0.0%
same,"Relative abundance, H1_54_81 H1v234.SGVSLAALKKALAAAGYDVEKNNSR",[2],100.0% and 65.9%
same,"Relative abundance, H1_54_81 H11.SGVSLAALKKSLAAAGYDVEKNNSR",[2],0.0%
same,"Relative abundance, H1_54_81 H15.GGVSLPALKKALAAGGYDVEKNNSR",[2],0.0%
same,relative abundance of other key histone methylation and acetylation sites,"HEK293T cells expressing asKDM4A, 100 μM 6A, LC-MS/MS",remained unaffected
same,relative abundance of H3K9me3,[3],recovered to the level of the control vector
same,relative abundance of H3K36me3,[3],recovered to the level of the control vector
same,Relative abundance AKAKSR(H2A3_12_17) (peptide total),[4],100.0%
same,Relative abundance AKAKTR(H2A1_12_17) (peptide total),[4],100.0%
same,Relative abundance DNKKTR(H2A1_72_77) (peptide total),[4],100.0%
same,Relative abundance H2A1_12_17 K13ac,[4],0.0152% and 0.527%
same,Relative abundance H2A1_12_17 K13acK15ac,[4],0.0603% and 0.3%
same,Relative abundance H2A1_12_17 K13me1,[4],1.8% and 5.0%
same,Relative abundance H2A1_12_17 K15ac,[4],15.2% and 32.5%
same,Relative abundance H2A1_12_17 K15me1,[4],4.8% and 11.0%
same,Relative abundance H2A1_12_17 unmod,[4],78.1% and 50.7%
same,Relative abundance H2A1_72_77 K74ac,[4],0.0186% and 0.272%
same,Relative abundance H2A1_72_77 unmod,[4],100.0% and 99.7%
same,Relative abundance H2A3_12_17 K13ac,[4],0.023% and 0.0778%
same,Relative abundance H2A3_12_17 K13acK15ac,[4],0.0187% and 0.4%
same,Relative abundance H2A3_12_17 K13me1,[4],11.1% and 15.7%
same,Relative abundance H2A3_12_17 K15ac,[4],0.0415% and 0.131%
same,Relative abundance H2A3_12_17 K15me1,[4],72.5% and 57.2%
same,Relative abundance H2A3_12_17 unmod,[4],16.3% and 26.5%
same,Relative abundance H2AZ_1_19 K4acK7acK11ac,[4],0.0%
same,Relative abundance H2AZ_1_19 K4acK7acK11acK15ac,[4],1.0% and 0.641%
same,Relative abundance H2A_1_88 H2A14s.HLQLAIR,[4],85.1% and 95.1%
same,Relative abundance H2A_1_88 H2AX.GKTGGKAR,[4],1.9% and 1.0%
same,Relative abundance H2A_1_88 H2AZ.AGGKAGKDSGKAKTKAVSR,[4],13.0% and 3.9%
